Where two headings read alike, the source gives them in different places.
Legend:
[1] = In vivo pharmacokinetic study in rat; details: for clearance / half-life / Vd / bioavailability: Sprague-Dawley (SD), blood; for clearance / half-life / Vd: iv, i.v. 0.2 mg/kg, cassette; for Vd: read-out: Vss; for bioavailability: po; for bioavailability / dose normalized AUC: p.o. 2 mg/kg, cassette (n=4)
Protocol: In a rat (SD, male, non-fasted) non-crossover cassette (n=2) PK study, Example 1 was dosed at 0.5 mg/kg (DMA: […]=5:95, solution) with another compound via i.v. administration (N=3) and 2 mg/kg (0.5% o Na CMC+0.50% Tween80, suspension) with another compound via oral gauge (p.o.) (N=3).
In a rat (SD, male and female, non-fasted) non-crossover cassette (n=4) PK study, Example 6 was dosed at 0.2 mg/kg (DMA: […]=5:95, solution) with other 3 compounds via i.v. administration (N=2 per sex) and 2 mg/kg (0.5% o Na CMC+0.50% Tween80, suspension) with other 3 compounds via oral gauge (p.o.) (N=2 per sex).
In a rat (SD, male and female, non-fasted) non-crossover PK study, Example 11 was dosed at 1 mg/kg (DMA: 20% HPBCD=5:95, solution) via i.v. administration (N=3 per sex) and 3 mg/kg (0.5% Na CMC+0.5% Tween80, suspension) via oral gauge (p.o.) (N=3 per sex).

[2] = In vivo brain exposure study in mouse; details: po, mouse CD-1 male, 10 mg/kg p.o., cassette
Protocol: In a mouse (CD-1, male) brain exposure cassette study, Examples 2 and 6 were dosed together at 10 mg/kg each (0.5% Na CMC+0.5% Tween80, solution) via oral gauge (p.o.). At 3 time points (N=3), 2h, 4h and 8h, plasma and brain samples were analyzed for average drug concentrations.
In a mouse (CD-1, male) brain exposure study, Examples 11 was dosed at 10 mg/kg each (0.5% Na CMC+0.5% Tween80, solution) via oral gauge (p.o.). At 3 time points (N=3), 1 h, 2h and 4h, plasma and brain samples were analyzed for average drug concentrations.

[3] = system: Symmetric Di-Methyl Arginine (sDMA) marks in Granta-519 cells; assay: sDMA Western blot / In Cell Western in Granta-519 cells; format: cell-based; details: Homo sapiens, 72 h; Granta-519, 3 days; read-out: sDMA_Granta IC50
Protocol: Compound titration and cell culture: Compounds were dissolved in DMSO to make 10 mM stock and 3-fold series dilutions were further conducted to make working stocks top at 1 mM. Granta-519 cells were maintained in PRMI 1640 (Corning Cellgro, Catalog #: 10-040-CV) supplemented with 10% v/v FBS (GE Healthcare, Catalog #: SH30910.03) and U-87 MG cells were maintained in DMEM (Corning Cellgro, Catalog #: 10-013-CV) with 10% FBS and 2 mM Glutamin (Corning Cellgro, Catalog #25005CV).
To determine enzyme inhibition IC50 values in Granta-519 and U-87 MG cells using Western Blot analysis. One day before experiment, Granta-519 cells were passaged to a density of 0.5×10^6 cells/ml. U-87 MG cells were trypsinized and 4×10^5 cells were seeded into 6-well plates and allow to grow overnight. The next day, Granta-519 cells were spun down at 1,500 rpm for 4 min, resuspend in fresh medium at 0.5×10^6 cells/ml and 3 mL of culture (1.5×10^6 cells) were seeded into 6 well plate. Eight-point, 3-fold serial dilutions of compound working stocks were added to cells (3 ul, 1:1,000 dilution, DMSO concentration was 0.1%; final top concentration at 1 uM) and incubated for 3 days. Cells incubated with DMSO was used as a vehicle control.
Cells were harvested 3 days later, resuspended in 15 uL PBS, lysed in 4% SDS, and homogenized by passing through homogenizer column (Omega Biotek, Catalog #: HCR003). Total protein concentrations were determined by BCA assay (ThermoFisher Scientific, Catalog #: 23225). Lysates were mixed with 5× Laemmli buffer and boiled for 5 min. Forty ug of total protein was separated on SDS-PAGE gels (Bio-Rad, catalog #: 4568083, 4568043), transferred to PVDF membrane, blocked with 5% dry milk (Bio-Rad, Catalog #: 1706404) in TBS with 0.1% v/v Tween 20 (TBST) for 1 hour at room temperature (RT), and incubated with primary antibodies (sDMA: Cell signaling, Catalog #: 13222, 1:3,000; β-Actin: sigma, Catalog #: 1:5,000) in 5% dry milk in TBST at 4° C. overnight. The next day, membranes were washed with TBST, 5×5 min, and incubated with HRP conjugated seconded antibody (GE Healthcare; Catalog #: NA934-1ML, NA931-1ML; 1:5,000) for 2 hours at RT, followed by 5×5 min washes with TBST, and incubation with ECL substrates (Bio-Rad, Catalog #: 1705061, 1705062). Chemiluminescent signal was captured with Fluochem HD2 imager (Proteinsimple). SmD3me2s bands were quantified by ImageJ. Signals were normalized to β-Actin and DMSO control. IC50 values were calculated using Graphpad Prism ([Inhibitor]vs. normalized response−Variable slope).
sDMA In Cell Western procedure (ICW): Granta-519 cells were passaged to a density of 0.5×10^6 cells/ml one day before experiments and allowed to grow overnight. The next day (day 0), cells were spun down at 1,500 rpm for 4 min, resuspended in fresh medium to 0.2×10^6 cells/ml and 100 uL of cells were added to 384-well plates using a Multidrop Combi Dispenser (ThermoFisher). A series of 9-point, 3-fold serial dilutions of compounds were prepared and dispensed into wells from a 1 mM stock solution using a TECAN digital dispenser (D300e) and the DMSO % concentration was normalized in each well to 0.1%. DMSO and 3 uM of reference compounds were used as negative (minimum inhibition) and positive (maximum inhibition) controls, respectively. After 3 days of incubation, cells were first resuspended and then 80 ul of cells were transferred to a Poly-D-lysine 384-well plate (Corning, Catalog #354663), followed by 30 minutes incubation at room temperature (RT) and 5 additional hours of incubation at 37° C. […]

- clearance ([1]; rat SD female): 21.6 mL/min/kg
- half-life ([1]; rat SD female): 1.69 h
- Vd ([1]; rat SD female): 1.91 L/kg
- clearance ([1]; rat SD male): 59.2 mL/min/kg
- half-life ([1]; rat SD male): 0.46 h
- Vd ([1]; rat SD male): 1.81 L/kg
- bioavailability ([1]; rat SD female): > 100%
- bioavailability ([1]; rat SD male): 51.1%
- dose normalized AUC ([1]; rat SD female): 1143 ng·kg·h/mL/mg
- dose normalized AUC ([1]; rat SD male): 144 ng·kg·h/mL/mg
- concentration at 2 h ([2]; brain, read-out: Brain-2 h): 183 ng/g
- concentration at 4 h ([2]; brain, read-out: Brain-4 h): 45.9 ng/g
- concentration at 8 h ([2]; brain, read-out: Brain-8 h): 50.5 ng/g
- concentration at 2 h ([2]; plasma, read-out: Plasma-2 h): 380 ng/mL
- concentration at 4 h ([2]; plasma, read-out: Plasma-4 h): 138 ng/mL
- concentration at 8 h ([2]; plasma, read-out: Plasma-8 h): 33.7 ng/mL
- IC50 [3]: 38 nM
SMILES: Nc1ncnc2c1c(F)cn2[C@@H]1O[C@H]([C@H](O)c2ccc3c(c2)CC3)[C@@H](O)[C@H]1O [Example 6, (2R,3R,4S,5R)-2-(4-amino-5-fluoro-7H-pyrrolo[2,3-d]pyrimidin-7-yl)-5-((R)-bicyclo[4.2.0]octa-1(6),2,4-trien-3-yl(hydroxy)methyl)tetrahydrofuran-3,4-diol]

Reference: patent publication US11524962B2, “Substituted pyrrolo[2,3-d]pyrimidines as inhibitors of protein arginine methyl transferase 5 (PRMT5)” (PRELUDE THERAPEUTICS, INCORPORATED, priority 2017, dated 2022)
